Assay results as given in PubChem BioAssay AID248 (DTP/NCI, 2004).
Where “and” joins values, the source holds several entries; their conditions need not be identical. Equal values may be shown once. Inconclusive results and toxic doses are left out. Rule as the data show it: active = T/C of 150% or more; inactive = T/C below 125%.

System: L1210 leukemia ip in BDF1 mice, survival T/C
Assay: NCI In Vivo Anticancer Drug Screen. Data for tumor model L1210 Leukemia (intraperitoneal) in B6D2F1 (BDF1) mice
Settings: endpoint: mean survival time, higher = longer survival
Method in brief: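 Value reflects the ratio of survival in compound-treated mice to survival in vehicle-treated controls, with both groups carrying the same transplanted tumor.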

[1] = dose: 100.0 mg/kg/injection, schedule: Q04DX003 (ip), vehicle: saline
[2] = dose: 200.0 mg/kg/injection, schedule: Q04DX003 (ip), vehicle: saline
[3] = dose: 400.0 mg/kg/injection, schedule: Q04DX003 (ip), vehicle: saline
[4] = dose: 100.0 mg/kg/injection, schedule: Q04DX002 (ip), vehicle: Klucel (hydroxypropylcellulose) (HPC)
[5] = dose: 200.0 mg/kg/injection, schedule: Q04DX002 (ip), vehicle: Klucel (hydroxypropylcellulose) (HPC)
[6] = dose: 25.0 mg/kg/injection, schedule: Q01DX001 (ip), vehicle: saline
[7] = dose: 50.0 mg/kg/injection, schedule: Q01DX001 (ip), vehicle: saline
[8] = dose: 100.0 mg/kg/injection, schedule: Q01DX001 (ip), vehicle: saline
[9] = dose: 100.0 mg/kg/injection, schedule: Q01DX009 (ip), vehicle: saline with Tween-80
[10] = dose: 200.0 mg/kg/injection, schedule: Q01DX009 (ip), vehicle: saline with Tween-80
[11] = dose: 400.0 mg/kg/injection, schedule: Q01DX009 (ip), vehicle: saline with Tween-80
[12] = dose: 200.0 mg/kg/injection, schedule: Q01DX001 (ip), vehicle: saline
[13] = dose: 400.0 mg/kg/injection, schedule: Q01DX001 (ip), vehicle: saline

Measured: T/C

O=C(NC(CCl)c1ccccc1)c1ccc([N+](=O)[O-])cc1 (configuration not stated)
inactive: dose: 75.0 mg/kg/injection, schedule: Q04DX003 (ip), vehicle: Klucel (hydroxypropylcellulose) (HPC) 100 % of control | dose: 100.0 mg/kg/injection, schedule: Q01DX001 (ip), vehicle: Klucel (hydroxypropylcellulose) (HPC) 98 % of control | dose: 150.0 mg/kg/injection, schedule: Q04DX003 (ip), vehicle: Klucel (hydroxypropylcellulose) (HPC) 103 % of control | dose: 200.0 mg/kg/injection, schedule: Q01DX001 (ip), vehicle: Klucel (hydroxypropylcellulose) (HPC) 104 % of control | dose: 300.0 mg/kg/injection, schedule: Q04DX003 (ip), vehicle: Klucel (hydroxypropylcellulose) (HPC) 97 % of control | dose: 400.0 mg/kg/injection, schedule: Q01DX001 (ip), vehicle: Klucel (hydroxypropylcellulose) (HPC) 104 % of control

CCCCCCCCCN(CCCCCCCCC)CC(O)c1ccc2cc(Br)c3ccccc3c2c1 (configuration not stated)
inactive: dose: 222.0 mg/kg/injection, schedule: Q01DX Z (ip), vehicle: methylcellulose (MC) 98 % of control | dose: 333.0 mg/kg/injection, schedule: Q01DX Z (ip), vehicle: methylcellulose (MC) 95 % of control | dose: 500.0 mg/kg/injection, schedule: Q01DX Z (ip), vehicle: methylcellulose (MC) 92 % of control

CN(C)/C=N/NC(=O)c1ccncc1
inactive: dose: 100.0 mg/kg/injection, schedule: Q01DX009 (ip), vehicle: saline 94 % of control | [1] 88 % of control | dose: 200.0 mg/kg/injection, schedule: Q01DX009 (ip), vehicle: saline 97 % of control | [2] 100 % of control | dose: 400.0 mg/kg/injection, schedule: Q01DX009 (ip), vehicle: saline 108 % of control | [3] 96 % of control

CCCCN(CCCC)CCNc1ccc(C)c2sc3ccccc3c(=O)c12
inactive: dose: 40.0 mg/kg/injection, schedule: Q01DX Z (ip), vehicle: carboxymethylcellulose (CMC) 104 % of control | dose: 600.0 mg/kg/injection, schedule: Q01DX Z (ip), vehicle: carboxymethylcellulose (CMC) 95 % of control

O=C1C(c2ccccc2)CS(=O)(=O)CC1c1ccccc1 (configuration not stated)
inactive: dose: 50.0 mg/kg/injection, schedule: Q04DX002 (ip), vehicle: Klucel (hydroxypropylcellulose) (HPC) 101 % of control | [4] 99 % of control | [5] 96 % of control

CC1(C)N=C(N)N=C(N)N1c1ccc(C(F)(F)F)cc1
inactive: [6] 107 % of control | [7] 117 % of control | [8] 103 % of control and 107 % of control

CCCC/C=C/Br
inactive: [1] 100 % of control | dose: 200.0 mg/kg/injection, schedule: Q01DX009 (ip), vehicle: acetone 101 % of control | [2] 108 % of control | [3] 105 % of control

O=C(CNC(=O)Nc1ccc(Cl)c(Cl)c1)N/N=C/c1ccc(F)cc1
inactive: [9] 98 % of control | [10] 96 % of control | [11] 98 % of control

B1CCN1
inactive: dose: 9.5 mg/kg/injection, schedule: Q01DX001 (ip), vehicle: saline 94 % of control | dose: 19.0 mg/kg/injection, schedule: Q01DX001 (ip), vehicle: saline 103 % of control

CCOC(=O)c1c(OC(C)=O)cc(C)nc1OC(C)=O
inactive: [8] 100 % of control | [12] 100 % of control | [13] 111 % of control

CC(C)NC(=O)Oc1ccccc1
inactive: [4] 93 % of control | [5] 110 % of control | dose: 400.0 mg/kg/injection, schedule: Q04DX002 (ip), vehicle: Klucel (hydroxypropylcellulose) (HPC) 96 % of control

CC1(c2ccncc2)OCCO1
inactive: [8] 97 % of control | [12] 101 % of control

Sc1ccc(Cl)cc1.[Pb]
inactive: dose: 25.0 mg/kg/injection, schedule: Q01DX009 (ip), vehicle: gum acacia 94 % of control | dose: 25.0 mg/kg/injection, schedule: Q04DX002 (ip), vehicle: gum acacia 99 % of control | dose: 50.0 mg/kg/injection, schedule: Q01DX009 (ip), vehicle: gum acacia 94 % of control | dose: 50.0 mg/kg/injection, schedule: Q04DX002 (ip), vehicle: gum acacia 99 % of control | dose: 100.0 mg/kg/injection, schedule: Q04DX002 (ip), vehicle: gum acacia 96 % of control and 91 % of control | dose: 200.0 mg/kg/injection, schedule: Q04DX002 (ip), vehicle: gum acacia 102 % of control | dose: 400.0 mg/kg/injection, schedule: Q04DX002 (ip), vehicle: gum acacia 109 % of control

CCN(CC)CCOc1ccccc1C(C)C
inactive: dose: 20.0 mg/kg/injection, schedule: Q04DX003 (ip), vehicle: saline 118 % of control | dose: 40.0 mg/kg/injection, schedule: Q04DX003 (ip), vehicle: saline 97 % of control | dose: 80.0 mg/kg/injection, schedule: Q04DX003 (ip), vehicle: saline 94 % of control | [1] 101 % of control

COc1ccc(C2=CC(=O)C(c3ccc(OC)cc3)=CC2=O)cc1
inactive: dose: 20.0 mg/kg/injection, schedule: Q01DX009 (ip), vehicle: gum acacia 88 % of control | dose: 20.0 mg/kg/injection, schedule: Q04DX003 (ip), vehicle: gum acacia 86 % of control | dose: 40.0 mg/kg/injection, schedule: Q04DX003 (ip), vehicle: gum acacia 92 % of control | dose: 80.0 mg/kg/injection, schedule: Q01DX009 (ip), vehicle: gum acacia 97 % of control | dose: 80.0 mg/kg/injection, schedule: Q04DX003 (ip), vehicle: gum acacia 91 % of control

CC1([N+](=O)[O-])COP(=O)(Nc2ccccc2)OC1 (configuration not stated)
inactive: [7] 96 % of control | [8] 98 % of control | [12] 93 % of control | [13] 110 % of control

O=C(O)c1cc(O)cc(O)c1
inactive: dose: 25.0 mg/kg/injection, schedule: Q01DX009 (ip), vehicle: Klucel (hydroxypropylcellulose) (HPC) 100 % of control | dose: 50.0 mg/kg/injection, schedule: Q01DX009 (ip), vehicle: Klucel (hydroxypropylcellulose) (HPC) 97 % of control | dose: 100.0 mg/kg/injection, schedule: Q01DX009 (ip), vehicle: Klucel (hydroxypropylcellulose) (HPC) 100 % of control

Cc1cc[n+](Cc2cc3ccccc3[nH]c2=O)cc1
inactive: dose: 12.5 mg/kg/injection, schedule: Q01DX001 (ip), vehicle: saline 96 % of control | [6] 100 % of control | [7] 95 % of control

Cc1cc(C)c(OS(=O)(=O)c2ccc([N+](=O)[O-])cc2)c(C)c1
inactive: [10] 87 % of control | [11] 89 % of control

Nc1cccc2c1nc(NCCO)c1ccccc12
inactive: dose: 100.0 mg/kg/injection, schedule: Q04DX003 (ip), vehicle: Klucel (hydroxypropylcellulose) (HPC) 114 % of control | dose: 200.0 mg/kg/injection, schedule: Q04DX003 (ip), vehicle: Klucel (hydroxypropylcellulose) (HPC) 103 % of control | dose: 400.0 mg/kg/injection, schedule: Q04DX003 (ip), vehicle: Klucel (hydroxypropylcellulose) (HPC) 103 % of control

CC(=O)NCCc1ccc(S(=O)(=O)F)cc1
inactive: [9] 91 % of control | [10] 102 % of control

COc1ccc2c(c1)CCNC2CCO (configuration not stated)
inactive: [1] 103 % of control

CC1(c2cccc([N+](=O)[O-])c2)OCCO1
inactive: dose: 100.0 mg/kg/injection, schedule: Q01DX009 (ip), vehicle: other 100 % of control | dose: 100.0 mg/kg/injection, schedule: Q04DX003 (ip), vehicle: other 103 % of control | dose: 200.0 mg/kg/injection, schedule: Q01DX009 (ip), vehicle: other 98 % of control | dose: 200.0 mg/kg/injection, schedule: Q04DX003 (ip), vehicle: other 104 % of control | dose: 400.0 mg/kg/injection, schedule: Q01DX009 (ip), vehicle: other 104 % of control | dose: 400.0 mg/kg/injection, schedule: Q04DX003 (ip), vehicle: other 100 % of control

CC(=O)SC(C)CC(=O)O (configuration not stated)
inactive: [1] 106 % of control | [2] 101 % of control
